US20260035403A1, “NUCLEOSIDE LINE-1 INHIBITORS” (TRANSPOSON THERAPEUTICS, INC., priority 2022, published 2026)

Test system: human LINE-1
Test: Human LINE-1 retrotransposition assay (HeLa cell-based dual-luciferase reporter)
Details: Homo sapiens, HeLa, 72 h, Human LINE-1 activity inhibition; HeLa cells, reporter plasmid pYX017, Firefly/Renilla, 72 h incubation
Protocol: Representative Compounds of the Disclosure were tested for inhibition of retrotransposition activity of human LINE-1 in HeLa cells according to the following procedure.
HeLa cervical cancer cells were cultivated at 37° C. in a humidified 5% CO2 incubator in Dulbecco's Modified Eagle's Medium (DMEM)—high glucose, with 4500 mg/L glucose, L-glutamine, sodium pyruvate and sodium bicarbonate (Sigma), supplemented with 10% of heat inactivated fetal bovine serum (Thermo Fisher).
Assays were performed using reporter plasmid pYX017 as described (Xie, et al., 2011) with several modifications. The reporter assay was performed in 96-well white optical bottom plates. HeLa cells were seeded in wells 24 h prior to transfection and compound treatment so that cells were approximately 30% confluent on the day of transfection. Different cell plating densities were tested and a density of 2×10^3 cells was determined to be optimal.
Compounds were resuspended in DMSO. Serial dilutions (1:3) were prepared in DMSO. Medium containing different concentrations of the compounds were prepared by adding 2 μl of the compound dilution to 1 ml of the culture medium. The final concentration of DMSO in the medium was 0.2%.
FuGENE® HD transfection reagent (Promega, E2311, Lot 382574 and Lot 397842) was used to transfect the plasmids into the cells. The transfection reagent: DNA mixture was prepared in OpiMEM (Thermo Fisher) according to manufacturer's instructions. Different ratios of transfection reagent to DNA were tested and a ratio of 3:1 was determined to be optimal. Culture medium was removed from the cells and discarded. The transfection reagent: DNA mixture (5 μl) was mixed with the compound containing medium (100 μl/well) and this was added onto the cells of each well. Cells were incubated at 37° C./5% CO2 for different incubation time. A 72 h incubation time was determined to be optimal.
Luciferase reporter activity was quantified with the Dual-Luciferase® Reporter Assay System (Promega) according to manufacturer's instructions for multiwell plates except that cells were lysed directly on the multiwell plate with 30 μl of the passive lysis buffer (PLB) for 20 min at room temperature, with gentle shaking to ensure complete cell lysis.
Firefly and Renilla luciferase signals were measured using a SpectraMax i3× Multi-Mode Microplate Reader. Integration times of 100 ms and 10 ms were used to measure the Firefly and Renilla signals respectively. Relative L1 activity is calculated as Firefly/Renilla*1000 or Firefly/Renilla*10,000. Dose response inhibition data were fit to a four parameter logistic equation using non-linear regression (using Graphpad Prism 8), to determine IC50 values for each inhibitor.

With `C#C[C@@]1(CO)C[C@@H](Sc2ccc(C)cc2)[C@H](n2cc(C)c(=O)[nH]c2=O)O1` [compound 26, 1-((2R,3R,5R)-5-ethynyl-5-(hydroxymethyl)-3-(p-tolylthio)tetrahydrofuran-2-yl)-5-methylpyrimidine-2,4(1H,3H)-dione] the IC50 was > 50 µM.

In the case of `C#C[C@@]1(CO)C=C[C@H](n2cc(C3CC3)c(=O)[nH]c2=O)O1` [compound 27, 5-cyclopropyl-1-((2R,5R)-5-ethynyl-5-(hydroxymethyl)-2,5-dihydrofuran-2-yl)pyrimidine-2,4(1H,3H)-dione], the IC50 is reported as > 50 µM.

For `C#C[C@@]1(CO)C=C[C@H](n2cc(C(F)(F)F)c(=O)[nH]c2=O)O1` [compound 28, 1-((2R,5R)-5-ethynyl-5-(hydroxymethyl)-2,5-dihydrofuran-2-yl)-5-(trifluoromethyl)pyrimidine-2,4(1H,3H)-dione], the IC50 was > 12.5 µM.

`C#C[C@]1(CO)O[C@@H](n2cc(C)c(=O)[nH]c2=O)C[C@H]1O` [compound 29, 1-((2R,4R,5R)-5-ethynyl-4-hydroxy-5-(hydroxymethyl)tetrahydrofuran-2-yl)-5-methylpyrimidine-2,4(1H,3H)-dione] was tested, and the IC50 was > 50 µM.

Molecule `C#C[C@@]1(CO)C=C[C@H](n2ccc(=O)[nH]c2=O)O1` [compound 30, 1-((2R,5R)-5-ethynyl-5-(hydroxymethyl)-2,5-dihydrofuran-2-yl)pyrimidine-2,4(1H,3H)-dione] has an IC50 of 16 µM.

`C#C[C@@]1(CO)C[C@@H](Sc2ccc(C)cc2)[C@H](n2ccc(=O)[nH]c2=O)O1` [compound 31, 1-((2R,3R,5R)-5-ethynyl-5-(hydroxymethyl)-3-(p-tolylthio)tetrahydrofuran-2-yl)pyrimidine-2,4(1H,3H)-dione] was tested, and the IC50 was > 50 µM.

In the case of `C#C[C@]1(CO)O[C@H](n2ccc(N)nc2=O)C[C@@H]1O` [compound 32, 4-amino-1-((2S,4S,5R)-5-ethynyl-4-hydroxy-5-(hydroxymethyl)tetrahydrofuran-2-yl)pyrimidin-2(1H)-one], the IC50 is reported as 0.84 µM.

In the case of `C#C[C@@]1(CO)C=C[C@H](n2cc(C#N)c(=O)[nH]c2=O)O1` [compound 33, 1-((2R,5R)-5-ethynyl-5-(hydroxymethyl)-2,5-dihydrofuran-2-yl)-2,4-dioxo-1,2,3,4-tetrahydropyrimidine-5-carbonitrile], the IC50 is reported as > 12.5 µM.

In the case of `C#C[C@@]1(CO)C=C[C@H](n2ccc3c(=O)[nH]cnc32)O1` [compound 34, 7-((2R,5R)-5-ethynyl-5-(hydroxymethyl)-2,5-dihydrofuran-2-yl)-3,7-dihydro-4H-pyrrolo[2,3-d]pyrimidin-4-one], the IC50 is reported as > 50 µM.

With `C#C[C@@]1(CO)C=C[C@H](n2cc(CC)c(=O)[nH]c2=O)O1` [compound 35, 5-ethyl-1-((2R,5R)-5-ethynyl-5-(hydroxymethyl)-2,5-dihydrofuran-2-yl)pyrimidine-2,4(1H,3H)-dione] the IC50 was > 50 µM.

With `C#C[C@@]1(CO)C=C[C@H](n2cc(OC)c(=O)[nH]c2=O)O1` [compound 36, 1-((2R,5R)-5-ethynyl-5-(hydroxymethyl)-2,5-dihydrofuran-2-yl)-5-methoxypyrimidine-2,4(1H,3H)-dione] the IC50 was > 12.5 µM.

Molecule `[2H]C([2H])([2H])c1cn([C@H]2C=C[C@@](C#C)(CO)O2)c(=O)[nH]c1=O` [compound 37, 1-((2R,5R)-5-ethynyl-5-(hydroxymethyl)-2,5-dihydrofuran-2-yl)-5-(methyl-d3)pyrimidine-2,4(1H,3H)-dione] has an IC50 of 0.067 µM.

With `C#C[C@@]1(CO)C=C[C@H](n2cnc3cncnc32)O1` [compound 38, ((2R,5R)-2-ethynyl-5-(9H-purin-9-yl)-2,5-dihydrofuran-2-yl)methanol] the IC50 was > 50 µM.

`C#C[C@@]1(CO)C=C[C@H](n2cnc3c(Cl)ncnc32)O1` [compound 39, ((2R,5R)-5-(6-chloro-9H-purin-9-yl)-2-ethynyl-2,5-dihydrofuran-2-yl)methanol] was tested, and the IC50 was > 50 µM.

In the case of `C#C[C@@]1(CO)C=C[C@H](n2cc(F)c(N)nc2=O)O1` [compound 40, 4-amino-1-((2R,5R)-5-ethynyl-5-(hydroxymethyl)-2,5-dihydrofuran-2-yl)-5-fluoropyrimidin-2(1H)-one], the IC50 is reported as > 50 µM.

With `C#C[C@@]1(CO)C=C[C@H](n2cnc3c(OC)nc(Cl)nc32)O1` [compound 41, ((2R,5R)-5-(2-chloro-6-methoxy-9H-purin-9-yl)-2-ethynyl-2,5-dihydrofuran-2-yl)methanol] the IC50 was > 50 µM.

In the case of `C#C[C@@]1(CO)C=C[C@H](n2cc(C)c(N)nc2=O)O1` [compound 42, 4-amino-1-((2R,5R)-5-ethynyl-5-(hydroxymethyl)-2,5-dihydrofuran-2-yl)-5-methylpyrimidin-2(1H)-one], the IC50 is reported as > 50 µM.

`C#C[C@]1(CO)OC(n2cc(C)c(=O)[nH]c2=O)C[C@@H]1O` (stereo partly drawn) [compound 43, 1-((4S,5R)-5-ethynyl-4-hydroxy-5-(hydroxymethyl)tetrahydrofuran-2-yl)-5-methylpyrimidine-2,4(1H,3H)-dione] gave an IC50 of 0.876 µM.

`C#C[C@]1(CO)OC(n2cc(Br)c(=O)[nH]c2=O)C[C@@H]1O` (stereo partly drawn) [compound 44, 5-bromo-1-((4S,5R)-5-ethynyl-4-hydroxy-5-(hydroxymethyl)tetrahydrofuran-2-yl)pyrimidine-2,4(1H,3H)-dione] gave an IC50 of 2.2 µM.

In the case of `C#C[C@]1(CO)OC(n2cc(F)c(=O)[nH]c2=O)C[C@@H]1O` (stereo partly drawn) [compound 45, 1-((4S,5R)-5-ethynyl-4-hydroxy-5-(hydroxymethyl)tetrahydrofuran-2-yl)-5-fluoropyrimidine-2,4(1H,3H)-dione], the IC50 is reported as 3.81 µM.

With `C#C[C@]1(CO)OC(n2cc(C)c(N)nc2=O)C[C@@H]1O` (stereo partly drawn) [compound 46, 4-amino-1-((4S,5R)-5-ethynyl-4-hydroxy-5-(hydroxymethyl)tetrahydrofuran-2-yl)-5-methylpyrimidin-2(1H)-one] the IC50 was > 50 µM.

For `Cc1cn([C@H]2C=C[C@](CO)(C3CC3)O2)c(=O)[nH]c1=O` [compound 47, 1-((2R,5S)-5-cyclopropyl-5-(hydroxymethyl)-2,5-dihydrofuran-2-yl)-5-methylpyrimidine-2,4(1H,3H)-dione], the IC50 was > 25 µM.

With `COC[C@@]1(CO)C=C[C@H](n2cc(C)c(=O)[nH]c2=O)O1` [compound 48, 1-((2R,5S)-5-(hydroxymethyl)-5-(methoxymethyl)-2,5-dihydrofuran-2-yl)-5-methylpyrimidine-2,4(1H,3H)-dione] the IC50 was > 50 µM.

For `C#C[C@]1(CO)O[C@H](n2cnc3c(=O)[nH]c(N)nc32)C[C@@H]1O` [compound 49, 2-amino-9-((2S,48,5R)-5-ethynyl-4-hydroxy-5-(hydroxymethyl)tetrahydrofuran-2-yl)-1,9-dihydro-6H-purin-6-one], the IC50 was 0.052 µM.

`C#C[C@]1(CO)O[C@H](n2cc(C)c(=O)[nH]c2=O)C[C@@H]1O` [compound 50, 1-((2S,4S,5R)-5-ethynyl-4-hydroxy-5-(hydroxymethyl)tetrahydrofuran-2-yl)-5-methylpyrimidine-2,4(1H,3H)-dione] showed an IC50 of 25.5 µM.

Work on `C#C[C@]1(CO)OC(n2ccc(=O)[nH]c2=O)C[C@@H]1O` (stereo partly drawn) [compound 51, 1-((4S,5R)-5-ethynyl-4-hydroxy-5-(hydroxymethyl)tetrahydrofuran-2-yl)pyrimidine-2,4(1H,3H)-dione] yielded an IC50 of 5.08 µM.

For `C#C[C@]1(CO)OC(n2cc(C3CC3)c(=O)[nH]c2=O)C[C@@H]1O` (stereo partly drawn) [compound 52, 5-cyclopropyl-1-((4S,5R)-5-ethynyl-4-hydroxy-5-(hydroxymethyl)tetrahydrofuran-2-yl)pyrimidine-2,4(1H,3H)-dione], the IC50 was > 50 µM.

For `C#C[C@]1(CO)O[C@H](n2cc(Br)c(=O)[nH]c2=O)C[C@@H]1O` [compound 53, 5-bromo-1-((2S,4S,SR)-5-ethynyl-4-hydroxy-5-(hydroxymethyl)tetrahydrofuran-2-yl)pyrimidine-2,4(1H,3H)-dione], the IC50 was > 50 µM.

With `C#C[C@]1(CO)O[C@H](n2cc(C)c(N)nc2=O)C[C@@H]1O` [compound 56, 4-amino-1-((2S,4S,5R)-5-ethynyl-4-hydroxy-5-(hydroxymethyl)tetrahydrofuran-2-yl)-5-methylpyrimidin-2(1H)-one] the IC50 was > 50 µM.

With `C#C[C@@]1(CO)C=C[C@H](n2cc(OC(F)F)c(=O)[nH]c2=O)O1` [compound 57, 5-(difluoromethoxy)-1-((2R,5R)-5-ethynyl-5-(hydroxymethyl)-2,5-dihydrofuran-2-yl)pyrimidine-2,4(1H,3H)-dione] the IC50 was > 50 µM.

`C#C[C@]1(CO)OC(n2cc(C#N)c(=O)[nH]c2=O)C[C@@H]1O` (stereo partly drawn) [compound 58, 1-((4S,5R)-5-ethynyl-4-hydroxy-5-(hydroxymethyl)tetrahydrofuran-2-yl)-2,4-dioxo-1,2,3,4-tetrahydropyrimidine-5-carbonitrile] was tested, and the IC50 was > 50 µM.
